≈ marks a conversion by molar mass, not a printed value. Where two headings read alike, the source gives them in different places.
Columns and labels:
Assay type in all cases: cell-based
[1] = tested on: Streptococcus pneumoniae 1016; assay: MIC, microtiter broth dilution (NCCLS M100-S14), S. pneumoniae 1016 (susceptible)
How it was run: (§1)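 Steps: dissolve compound in DMSO to 40 mg/ml stock; dilute in broth across microtiter trays; inoculate strains; record MIC per NCCLS M100-S14.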

[2] = tested on: Streptococcus pyogenes 1079; assay: MIC, microtiter broth dilution (NCCLS M100-S14), S. pyogenes 1079 (ermB)
How it was run: as §1

[3] = tested on: Haemophilus influenzae 1218; assay: MIC, microtiter broth dilution (NCCLS M100-S14), H. influenzae 1218 (susceptible)
How it was run: as §1

[4] = tested on: Streptococcus pneumoniae 1095; conditions: microtiter broth dilution
How it was run: as §1

[5] = tested on: Streptococcus pneumoniae 1175; conditions: microtiter broth dilution
How it was run: as §1

SMILES | MIC S. pneumo. 1016 ([1]; Streptococcus pneumoniae 1016) | MIC S. pyogenes 1079 ([2]; Streptococcus pyogenes 1079) | MIC H. influenzae 1218 ([3]; Haemophilus influenzae 1218) | MIC S. pneumo. 1095 ([4]; Streptococcus pneumoniae 1095) | MIC S. pneumo. 1175 ([5]; Streptococcus pneumoniae 1175) | MIC S. pneumo. 1016 ([1]; S. pneumoniae 1016 (susceptible)) | MIC S. pyogenes 1079 ([2]; S. pyogenes 1079 (ermB)) | MIC H. influenzae 1218 ([3]; H. influenzae 1218 (susceptible)) | MIC S. pneumo. 1095 ([4]; S. pneumoniae 1095 (ermB)) | MIC S. pneumo. 1175 ([5]; S. pneumoniae 1175 (mefA))
CCC1OC(=O)C(C)C(=O)C(C)C(OC2OC(C)CC(N(C)C)C2O)C(C)(OC)CC(C)C(=O)C(C)C2N(C3CN(Cc4cccc(-c5ccccn5)c4)C3)C(=O)OC12C (stereo not shown) [Example 1.43, 3-(pyridin-2-yl)-benzyl] | <0.06 µg/mL | 16 µg/mL (≈ 19.2 µM) | 2 µg/mL (≈ 2.4 µM) | <0.06 µg/mL | <0.06 µg/mL | – | – | – | – | –
CCC1OC(=O)C(C)C(=O)C(C)C(OC2OC(C)CC(N(C)C)C2O)C(C)(OC)CC(C)C(=O)C(C)C2N(C3CN(Cc4ccccn4)C3)C(=O)OC12C (stereo not shown) [Example 1.02, (pyridin-2-yl)methyl] | <0.06 µg/mL | >64.00 µg/mL | 0.25 µg/mL (≈ 0.329 µM) | 0.12 µg/mL (≈ 0.158 µM) | 0.12 µg/mL (≈ 0.158 µM) | – | – | – | – | –
CCC1OC(=O)C(C)C(=O)C(C)C(OC2OC(C)CC(N(C)C)C2O)C(C)(OC)CC(C)C(=O)C(C)C2N(CC3CN(Cc4ccc5cnccn45)C3)C(=O)OC12C (stereo not shown) [4.24] | <0.06 µg/mL | 64 µg/mL (≈ 78.8 µM) | 0.5 µg/mL (≈ 0.616 µM) | 0.5 µg/mL (≈ 0.616 µM) | <0.06 µg/mL | – | – | – | – | –
CCC1OC(=O)C(C)C(=O)C(C)C(OC2OC(C)CC(N(C)C)C2O)C(C)(OC)CC(C)C(=O)C(C)C2N(C3CN(S(=O)(=O)c4cccc(-c5ncco5)c4)C3)C(=O)OC12C (stereo not shown) [Example 3.65, 3-descladinosyl-11,12-dideoxy-6-O-methyl-3-oxo-12,11-(oxycarbonyl-(1-(3-(oxazol-2-yl)benzenesulfonyl)-azetidin-3-yl)-imino)-erythromycin A] | <0.06 µg/mL | 1 µg/mL (≈ 1.14 µM) | 0.12 µg/mL (≈ 0.137 µM) | <0.06 µg/mL | <0.06 µg/mL | – | – | – | – | –
CCC1OC(=O)C(C)C(=O)C(C)C(OC2OC(C)CC(N(C)C)C2O)C(C)(OC)CC(C)C(=O)C(C)C2N(C3CN(S(=O)(=O)c4cn(C)c(C)n4)C3)C(=O)OC12C (stereo not shown) [Example 3.28] | <0.06 µg/mL | >64.00 µg/mL | 1 µg/mL (≈ 1.21 µM) | <0.06 µg/mL | 4 µg/mL (≈ 4.84 µM) | – | – | – | – | –
CCC1OC(=O)C(C)C(=O)C(C)C(OC2OC(C)CC(N(C)C)C2O)C(C)(OC)CC(C)C(=O)C(C)C2N(CC3(O)CN(C(=O)c4ccc5ncccc5c4)C3)C(=O)OC12C (stereo not shown) [7.05] | – | – | – | – | – | <0.06 µg/mL | >64.00 µg/mL | 1 µg/mL (≈ 1.17 µM) | 2 µg/mL (≈ 2.34 µM) | 1 µg/mL (≈ 1.17 µM)
CCC1OC(=O)C(C)C(=O)C(C)C(OC2OC(C)CC(N(C)C)C2O)C(C)(OC)CC(C)C(=O)C(C)C2N(C3CN(S(=O)(=O)c4cnc5ncccn45)C3)C(=O)OC12C (stereo not shown) [Example 3.17, 3-descladinosyl-11,12-dideoxy-6-O-methyl-3-oxo-12,11-(oxycarbonyl-(1-(imidazo[1,2-a]pyrimidine-3-sulfonyl)-azetidin-3-yl)-imino)-erythromycin A] | <0.06 µg/mL | 4 µg/mL (≈ 4.71 µM) | 0.5 µg/mL (≈ 0.589 µM) | <0.06 µg/mL | 0.12 µg/mL (≈ 0.141 µM) | – | – | – | – | –
CCC1OC(=O)C(C)C(=O)C(C)C(OC2OC(C)CC(N(C)C)C2O)C(C)(OC)CC(C)C(=O)C(C)C2N(C3CN(Cc4ccc5c(c4)CS(=O)(=O)C5)C3)C(=O)OC12C (stereo not shown) [Example 1.94] | <0.063 µg/mL | 4 µg/mL (≈ 4.72 µM) | 1 µg/mL (≈ 1.18 µM) | 0.5 µg/mL (≈ 0.59 µM) | 0.25 µg/mL (≈ 0.295 µM) | – | – | – | – | –
